Data reported in patent US10167262B2, “Herbicidal substituted 3-arylpyrazoles” (FMC CORPORATION, priority 2014, dated 2019).

test system: large (Lg) crabgrass (Digitaria sanguinalis); assay: Test A pre-/postemergence greenhouse herbicide test, visual injury rating 0-100; assay type: in vivo; conditions: Postemergence, 1000 g ai/ha
Description: (§1) Seeds of plant species selected from barnyardgrass (Echinochloa crus-galli), large (Lg) crabgrass (Digitaria sanguinalis), giant foxtail (Setaria faberii), morningglory (Ipomoea spp.), pigweed (Amaranthus retroflexus), velvetleaf (Abutilon theophrasti), wheat (Triticum aestivum), and corn (Zea mays) were planted into a blend of loam soil and sand and treated preemergence with a directed soil spray using test chemicals formulated in a non-phytotoxic solvent mixture which included a surfactant. At the same time these species were also treated with postemergence applications of test chemicals formulated in the same manner. Plants ranged in height from 2 to 10 cm and were in the one- to two-leaf stage for the postemergence treatment. Treated plants and untreated controls were maintained in a greenhouse for approximately 10 days, after which time all treated plants were compared to untreated controls and visually evaluated for injury. Plant response ratings, summarized in Table A, are based on a 0 to 100 scale where 0 is no effect and 100 is complete control. A dash (-) response means no test result.

| Compound | Plant response rating (0 to 100 scale), Crabgrass, Large |
| --- | --- |
| Clc1cc(Cl)cc(-c2n[nH]cc2C(=NN2CCCCC2)c2ccccc2)c1 [Compound 51] | 0 |
| CC(=O)n1cc(C(=O)c2cncc(F)c2)c(-c2cc(Cl)cc(Cl)c2)n1 [Compound 20] | 0 |

same assay, conditions: Preemergence, 1000 g ai/ha

| Compound | Plant response rating (0 to 100 scale), Crabgrass, Large |
| --- | --- |
| Clc1cc(Cl)cc(-c2n[nH]cc2C(=NN2CCCCC2)c2ccccc2)c1 [Compound 51] | 0 |
| CC(=O)n1cc(C(=O)c2cncc(F)c2)c(-c2cc(Cl)cc(Cl)c2)n1 [Compound 20] | 0 |

test system: barnyardgrass (Echinochloa crus-galli); assay: as above; assay type: in vivo; conditions: Postemergence, 1000 g ai/ha
Description: as §1

| Compound | Plant response rating (0 to 100 scale), Barnyardgrass |
| --- | --- |
| Clc1cc(Cl)cc(-c2n[nH]cc2C(=NN2CCCCC2)c2ccccc2)c1 [Compound 51] | 0 |
| CC(=O)n1cc(C(=O)c2cncc(F)c2)c(-c2cc(Cl)cc(Cl)c2)n1 [Compound 20] | 0 |

same assay, conditions: Preemergence, 1000 g ai/ha

| Compound | Plant response rating (0 to 100 scale), Barnyardgrass |
| --- | --- |
| Clc1cc(Cl)cc(-c2n[nH]cc2C(=NN2CCCCC2)c2ccccc2)c1 [Compound 51] | 0 |
| CC(=O)n1cc(C(=O)c2cncc(F)c2)c(-c2cc(Cl)cc(Cl)c2)n1 [Compound 20] | 0 |

test system: wheat (Triticum aestivum); assay: as above; assay type: in vivo; conditions: Postemergence, 1000 g ai/ha
Description: as §1

| Compound | Plant response rating (0 to 100 scale), Wheat |
| --- | --- |
| Clc1cc(Cl)cc(-c2n[nH]cc2C(=NN2CCCCC2)c2ccccc2)c1 [Compound 51] | 0 |
| CC(=O)n1cc(C(=O)c2cncc(F)c2)c(-c2cc(Cl)cc(Cl)c2)n1 [Compound 20] | 0 |

same assay, conditions: Preemergence, 1000 g ai/ha

| Compound | Plant response rating (0 to 100 scale), Wheat |
| --- | --- |
| Clc1cc(Cl)cc(-c2n[nH]cc2C(=NN2CCCCC2)c2ccccc2)c1 [Compound 51] | 0 |
| CC(=O)n1cc(C(=O)c2cncc(F)c2)c(-c2cc(Cl)cc(Cl)c2)n1 [Compound 20] | 0 |

test system: corn (Zea mays); assay: as above; assay type: in vivo; conditions: Postemergence, 1000 g ai/ha
Description: as §1

| Compound | Plant response rating (0 to 100 scale), Corn |
| --- | --- |
| Clc1cc(Cl)cc(-c2n[nH]cc2C(=NN2CCCCC2)c2ccccc2)c1 [Compound 51] | 0 |
| CC(=O)n1cc(C(=O)c2cncc(F)c2)c(-c2cc(Cl)cc(Cl)c2)n1 [Compound 20] | 0 |

same assay, conditions: Preemergence, 1000 g ai/ha

| Compound | Plant response rating (0 to 100 scale), Corn |
| --- | --- |
| Clc1cc(Cl)cc(-c2n[nH]cc2C(=NN2CCCCC2)c2ccccc2)c1 [Compound 51] | 0 |
| CC(=O)n1cc(C(=O)c2cncc(F)c2)c(-c2cc(Cl)cc(Cl)c2)n1 [Compound 20] | 0 |

test system: giant foxtail (Setaria faberii); assay: as above; assay type: in vivo; conditions: Postemergence, 1000 g ai/ha
Description: as §1

| Compound | Plant response rating (0 to 100 scale), Foxtail, Giant |
| --- | --- |
| Clc1cc(Cl)cc(-c2n[nH]cc2C(=NN2CCCCC2)c2ccccc2)c1 [Compound 51] | 0 |
| CC(=O)n1cc(C(=O)c2cncc(F)c2)c(-c2cc(Cl)cc(Cl)c2)n1 [Compound 20] | 0 |

same assay, conditions: Preemergence, 1000 g ai/ha

| Compound | Plant response rating (0 to 100 scale), Foxtail, Giant |
| --- | --- |
| Clc1cc(Cl)cc(-c2n[nH]cc2C(=NN2CCCCC2)c2ccccc2)c1 [Compound 51] | 0 |
| CC(=O)n1cc(C(=O)c2cncc(F)c2)c(-c2cc(Cl)cc(Cl)c2)n1 [Compound 20] | 0 |

test system: morningglory (Ipomoea spp.); assay: as above; assay type: in vivo; conditions: Postemergence, 1000 g ai/ha
Description: as §1

| Compound | Plant response rating (0 to 100 scale), Morningglory |
| --- | --- |
| Clc1cc(Cl)cc(-c2n[nH]cc2C(=NN2CCCCC2)c2ccccc2)c1 [Compound 51] | 0 |
| CC(=O)n1cc(C(=O)c2cncc(F)c2)c(-c2cc(Cl)cc(Cl)c2)n1 [Compound 20] | 0 |

same assay, conditions: Preemergence, 1000 g ai/ha

| Compound | Plant response rating (0 to 100 scale), Morningglory |
| --- | --- |
| Clc1cc(Cl)cc(-c2n[nH]cc2C(=NN2CCCCC2)c2ccccc2)c1 [Compound 51] | 0 |
| CC(=O)n1cc(C(=O)c2cncc(F)c2)c(-c2cc(Cl)cc(Cl)c2)n1 [Compound 20] | 0 |

test system: velvetleaf (Abutilon theophrasti); assay: as above; assay type: in vivo; conditions: Postemergence, 1000 g ai/ha
Description: as §1

| Compound | Plant response rating (0 to 100 scale), Velvetleaf |
| --- | --- |
| Clc1cc(Cl)cc(-c2n[nH]cc2C(=NN2CCCCC2)c2ccccc2)c1 [Compound 51] | 90 |
| CC(=O)n1cc(C(=O)c2cncc(F)c2)c(-c2cc(Cl)cc(Cl)c2)n1 [Compound 20] | 90 |

same assay, conditions: Preemergence, 1000 g ai/ha

| Compound | Plant response rating (0 to 100 scale), Velvetleaf |
| --- | --- |
| Clc1cc(Cl)cc(-c2n[nH]cc2C(=NN2CCCCC2)c2ccccc2)c1 [Compound 51] | 90 |
| CC(=O)n1cc(C(=O)c2cncc(F)c2)c(-c2cc(Cl)cc(Cl)c2)n1 [Compound 20] | 80 |

test system: pigweed (Amaranthus retroflexus); assay: as above; assay type: in vivo; conditions: Postemergence, 1000 g ai/ha
Description: as §1

| Compound | Plant response rating (0 to 100 scale), Pigweed |
| --- | --- |
| Clc1cc(Cl)cc(-c2n[nH]cc2C(=NN2CCCCC2)c2ccccc2)c1 [Compound 51] | 90 |
| CC(=O)n1cc(C(=O)c2cncc(F)c2)c(-c2cc(Cl)cc(Cl)c2)n1 [Compound 20] | 90 |

same assay, conditions: Preemergence, 1000 g ai/ha

| Compound | Plant response rating (0 to 100 scale), Pigweed |
| --- | --- |
| Clc1cc(Cl)cc(-c2n[nH]cc2C(=NN2CCCCC2)c2ccccc2)c1 [Compound 51] | 100 |
| CC(=O)n1cc(C(=O)c2cncc(F)c2)c(-c2cc(Cl)cc(Cl)c2)n1 [Compound 20] | 100 |
